In PMC12040169 (PLOS Biology, 2025):

Experiment: in vitro
Conditions: human, hela cells, % viability

SMILES	viability at 28.5 h, 10 µM [%]
CC(=O)NC1(c2ccccc2)CCN(CC(O)c2ccccc2)CC1 (centres unmarked) [CBK284819]	107
O=C(O)c1cccc(-c2cncc(NCCCN3CCOCC3)n2)c1 [CBK037850]	104
COc1ccc(CC(=O)N2CCCC(c3nc(C)c4c(n3)N(CC3CC3)CCC4)C2)cc1 (centres unmarked) [CBK286228]	100
CN(Cc1ccccc1)c1nccnc1-c1ccccc1F [CBK037410]	95
O=C(c1ccco1)N1CCC[C@H]1[C@H](O)c1nccs1 [CBK284286]	98.5
O=[N+]([O-])c1ccc(CN2CCN(C/C=C/c3ccccc3)CC2)o1 [CBK026551]	85.1
COC(=O)c1sccc1NC(=O)/C=C/c1ccccc1 [CBK057041]	115
O=C(c1ccc(F)cc1)N1CCC(O)(c2ccccn2)CC1 [CBK283669]	92.9
O=C(O)CCCN1C(=O)C(O)=C(C(=O)c2ccccc2)C1c1ccccc1 (centres unmarked) [CBK262924]	93.3
O=C(Nc1nnc(C2CCCCC2)s1)c1ccccc1I [CBK057918]	114
CC1CCN(Cc2ccc(-c3nnn(CC(=O)NCc4ccc(S(N)(=O)=O)cc4)n3)cc2)CC1 [CBK144141C]	93.3
O=C(COc1ccccc1)N1CCCC1c1cccc(Cc2ccc(F)cc2)n1 (centres unmarked) [CBK286230]	102
COc1ccc(/C=C/C(=O)O)cc1S(=O)(=O)NCc1ccccc1 [CBK287252]	87.9
COc1cccc2ncn(CCc3n[nH]c(N)n3)c(=O)c12 [CBK307301]	90.8
CCOc1ccc(Nc2cc(Cl)nc(N)n2)cc1 [CBK288069]	98.7
O=C(CC1CCCC1)NCCn1nc(-c2ccco2)ccc1=O [CBK283864]	106
Cc1csc2ncc(C(=O)Nc3ccccc3F)c(=O)n12 [CBK287455]	113
O=C1COCC(=O)N1c1ccc(I)cc1 [CBK086499]	87.5
O=C(c1ccco1)N1CCN(c2ncc(-c3ccc(N4CCOCC4)cc3)n3ccnc23)CC1 [CBK091225]	92.6
Cc1nn(C)cc1S(=O)(=O)N1CCc2cc(Cl)ccc21 [CBK282802]	107
Cc1ncc(COP(=O)(O)O)c(/C=N/c2ccc3ccccc3c2)c1O [CBK261460]	106
Cc1ccc2c(N)c(C(=O)c3cccs3)sc2n1 [CBK115369]	92.5

SMILES	viability at 28.5 h, 10 µM [%]
COc1cccc(C2C(C(=O)c3ccc(Cl)cc3)=C(O)C(=O)N2CCN2CCOCC2)c1 (centres unmarked) [CBK264901]	90
Cc1nc(-c2nnc(NC(=O)COc3ccc(Cl)cc3Cl)o2)cs1 [CBK287843]	109
Cc1nc(N2CCOCC2)nc(Nc2ccc(Cl)cc2)c1[N+](=O)[O-] [CBK264685]	87.5
COc1ccc(CNC(=O)c2cc(S(=O)(=O)N3CCCC3)cn2C)cc1 [CBK304637]	95.2
CCOc1ccc(-c2ccnc(N3CCN(CC)CC3)n2)cc1C(=O)O [CBK307697]	80.6
OCCCN1CCC(Oc2cncc(OCc3cccnc3)n2)C1 (centres unmarked) [CBK084465]	91.7
O=C(NCc1cccnc1)C1CCCN(c2nc3c(-c4ccccc4)csc3c(=O)[nH]2)C1 (centres unmarked) [CBK215492]	112
CC1(C)CC(NC(=O)c2cccc([N+](=O)[O-])c2)CC(C)(C)N1 [CBK262952C]	99.8
COc1ccc(Cl)cc1NS(=O)(=O)N1CCOCC1 [CBK269937]	93
Cc1nn(C)cc1CN(C)S(=O)(=O)c1cccc([N+](=O)[O-])c1 [CBK265399]	79.9
O=C(/C=C\c1ccc(Cl)cc1Cl)N1CCN(Cc2ccc3c(c2)OCO3)CC1 [CBK074371]	97.3
Cc1cc(OCC2CCN(C(=O)OC(C)(C)C)CC2)ccc1Br [CBK175091]	108
FC(F)(F)c1ccnc(OCCNc2ccccc2)n1 [CBK115839]	90.8
COc1ccc(C(=O)Nc2nc3c(OC)ccc(C)c3s2)cc1 [CBK287615]	110
CC(Sc1nc(C2CC2)n(-c2ccccc2)n1)C(=O)N1CCNC1=O (centres unmarked) [CBK297144]	97.2
CCOc1ccc2nc(NC3=NC(CC(=O)O)C(=O)N3)nc(C)c2c1 (centres unmarked) [CBK263120]	103
CC(=O)N/C(=C/c1ccc([N+](=O)[O-])cc1)C(=O)Nc1cccc(C(=O)O)c1 [CBK264495]	94.8
COc1cncc(-c2cc(N3CCN(S(=O)(=O)c4ccc(Cl)cc4)CC3)ncn2)c1 [CBK091162]	108
CC(C)c1noc(-c2ncn3c2c(=O)n(C(C)C)c2cc(F)ccc23)n1 [CBK016659]	102
COc1cccc2cc(C(=O)Nc3cccc(C)n3)oc12 [CBK287659]	94.5
CC(Cn1cc(Cl)cn1)C(=O)NCCN(C)C1CCCCC1 (centres unmarked) [CBK282041]	86.1
C#CCNC(=O)[C@@H]1Cc2cn(Cc3c(C)noc3C)c3cccc(c23)[C@H](CC(C)C)N1 [CBK289425]	93.7

SMILES	viability at 28.5 h, 10 µM [%]
NC(=O)CCN1CCCC2(CCN(C(=O)Cc3c[nH]c4ccccc34)C2)C1 (centres unmarked) [CBK132041]	106
CCOC(=O)c1cccnc1-c1ccc2[nH]ccc2c1 [CBK149238]	99.7
O=C(O)c1cccc(NC(=S)NC(=O)c2ccc(-c3ccc(Br)cc3)o2)c1 [CBK265014]	95.6
CCNc1cc(-c2ccc(CC(C)C)cc2)ncn1 [CBK090884]	102
Nc1nc(NCCc2ccccc2)nc(-c2cc(Cl)ccc2O)n1 [CBK074551]	91.8
Cc1ccccc1OCC(O)CN1CCCC(C(F)(F)F)C1 (centres unmarked) [CBK304873]	103
Cn1ccc(C2CCCCCN2C(=O)Cc2cccs2)n1 (centres unmarked) [CBK283047]	86.5
Cc1cc(N2CCN(Cc3nc(C(C)(C)C)no3)CC2)nc(C(C)C)n1 [CBK305333]	96.3
CC(Oc1ccccc1)C(=O)Nc1ccc(-c2csc(-c3ccccc3)n2)cc1 (centres unmarked) [CBK268855]	103
COc1ccc(C2(NCc3cn(CC(N)=O)c4ccccc34)CC2)cc1 [CBK282833]	107
CC(C)c1[nH]c2ncccc2c1CN1CCSCC1 [CBK285312]	94
O=C(O)CC1CCC2(CC1)Cc1ccccc1C2 [CBK012397]	89.8
CC(C)C(=O)Nc1ccc2c(-c3ccccc3)ccnc2n1 [CBK073671]	101
CC(=O)c1ccc(-c2nc(-c3cccc(OC(F)(F)F)c3)cnc2N)cc1 [CBK064105]	103
COc1cc(-c2nc(N)n[nH]2)cc(OC)c1OC [CBK288077]	103
COc1ccccc1NC(=O)c1cn(Cc2ccc(N)cc2)cn1 [CBK288045]	99.5
COc1cccc(NC(=O)c2cc(-c3ccc(C(=O)N4CCOCC4)cc3)cnc2N)c1 [CBK160203]	89.4
CCOC(=O)c1cccc(-n2cc(-c3ccc(Br)cc3F)nn2)c1 [CBK113153]	92.3
CCCc1nnc(SCC(=O)Nc2cccc(C(F)(F)F)c2)n1N [CBK028004]	104
COc1ccc(C)cc1-n1ccc(C(=O)N2CCSCC2)n1 [CBK305972]	96.5
Cn1nc(-c2cccs2)cc1[C@H]1CN2CC[C@H]1C[C@@H]2CNC(=O)c1ccco1 [CBK289100]	86.6
